According to US10787442B2, “Modulators of indoleamine 2,3-dioxygenase” (GLAXOSMITHKLINE INTELLECTUAL PROPERTY DEVELOPMENT LIMITED, priority 2016, dated 2020):
Where two headings read alike, the source gives them in different places.

Key:
[1] = Toxicokinetics in Beagle dogs, 7 day repeat oral administration; format: in vivo, Beagle dog; conditions: for Tmax / Cmax / AUC(0-t): Beagle, dog, plasma; for Therapeutic Index AUC (0-12 hr): versus predicted human efficacious AUC; for Therapeutic Index Cmax: versus predicted human efficacious Cmax; for Cmax / AUC(0-t): po; for AUC(0-t): read-out: AUC (0-12 hr)
Description: (§1) To understand its toxicokinetics and potential effect on hepatic functions, EXAMPLE 6 was orally dosed to Beagle dogs for 7 consecutive days.

[2] = Tolerability and hepatic functions in Beagle dogs, 7 day repeat oral administration; format: in vivo, Beagle dog
Description: as §1

[3] = test system: human peripheral blood mononuclear cells (PBMC); test: PBMC cytotoxicity assay (CellTiter-Glo); format: cell-based; conditions: cytotoxicity in stimulated PBMC, recorded as pCC50
[4] = female, 20 mg/kg, Day1, Female, 20 mg/kg PO BID
[5] = female, 20 mg/kg, Day7, Female, 20 mg/kg PO BID
[6] = male, 20 mg/kg, Day1, Male, 20 mg/kg PO BID
[7] = male, 20 mg/kg, Day7, Male, 20 mg/kg PO BID

## CC(C)CN(c1ncc([C@H](C)CC(=O)O)cc1Nc1ccc(Cl)cn1)C1CCOCC1 [Example 6, (R)-3-(5-((5-chloropyridin-2-yl)amino)-6-(isobutyl(tetrahydro-2H-pyran-4-yl)amino)pyridin-3-yl)butanoic acid]
[1]; oral, 20 mg/kg, post dose on Days 1 and 7
  Tmax: 30 min
[1]; Day1, Female, 20 mg/kg PO BID
  Tmax: 30 min
[1]; Day1, Male, 20 mg/kg PO BID
  Tmax: 30 min
[1]; Day1, Female, 20 mg/kg
  Therapeutic Index AUC (0-12 hr): 15
  Therapeutic Index Cmax: 86
[1]; Day1, Male, 20 mg/kg
  Therapeutic Index AUC (0-12 hr): 25
  Therapeutic Index Cmax: 237
[1]; Day 7
  average therapeutic coverage in AUC for the predicted human efficacious dose: ~34 fold
  average therapeutic coverage in Cmax for the predicted human efficacious dose: ~147 fold
[1]; Day7, Female, 20 mg/kg
  Therapeutic Index AUC (0-12 hr): 51
  Therapeutic Index Cmax: 102
[1]; Day7, Male, 20 mg/kg
  Therapeutic Index AUC (0-12 hr): 18
  Therapeutic Index Cmax: 191
[1]; Days 1 and 7
  quantifiable in plasma post the start of the oral dose: up to 24 hours
[1]; female dog
  Cmax on Days 1 and 7: comparable
  increase in AUC0-12 following 7 day repeat dosing: ~3 fold
[1]; [4]
  Cmax: 3700 ng/mL
  AUC(0-t): 5200 ng·h/mL
[1]; [5]
  Cmax: 4400 ng/mL
  AUC(0-t): 17900 ng·h/mL
[1]; male dog
  systemic exposure (Cmax and AUC0-12 values) on Days 1 and 7: similar
[1]; [6]
  Cmax: 10200 ng/mL
  AUC(0-t): 8700 ng·h/mL
[1]; [7]
  Cmax: 8200 ng/mL
  AUC(0-t): 6500 ng·h/mL
[2]; 20 mg/kg PO BID for 7 days
  clinical observations: no clinical observations
  tolerability throughout the study: well tolerated
[2]; 20 mg/kg PO BID for 7 days, FIG. 2
  Hepatic functions measured by serum ALT, AST, ALP and T-Bil levels: in the normal variable ranges
[2]; male and female dogs over the study, FIG. 1
  Body weights: constant
[3]
  PBMC_TOX PXC50: <5.0
